Data taken from patent US6455077B2, “Herbal composition and method of manufacturing such composition for the management of gynecological disorders” (Dabur Research Foundation, priority 2001, dated 2002).

Test system: rat isolated uterus
Assay: Uterotonic (oxytocic) activity on isolated uterus of stilbestrol-primed rats, compared with 5-HT
Design: species or system Wistar female albino rats
Conditions: isolated uterus horn of stilbestrol dipropionate (1 mg/kg i.p., 24 h) pre-treated rats, de Jalon's solution
Experimental: The above two samples were assayed for their effect on Uterotonic activity using Wistar female albino rats.
The uterotonic property of the test extracts were assessed in two test areas.
1. The oxytocic activity of the Sample A and Sample B is compared with uterine stimulant 5-HT.
Female rats weighing between 150-200 g were pre-treated with stilbestrol dipropionate, 1 mg/kg intra peritoneally 24 h prior to the experiment. The rats were killed by a swift blow on the head and exsanguinated. The uterus of rat dissected and the two horns divided. One horn is suspended in the bath. The rhythmic contractions are abolished by using de jalon's solution. When the spontaneous contractions became regular, the responses to Extracts of Sample A and Sample B and other agonists were recorded using a Frontal lever, isometrically connected to a polygraph.

For CN1CC(=O)N=C1N.NCCc1c[nH]c2ccc(O)cc12.O=S(=O)(O)O [Formulation 5-HT, 5-hydroxytryptamine creatinine sulphate], the “In-vitro treatment (uterine contraction)” value was 1. The control drug 5-HT induced a dose related increase in the height of contraction of rat isolated uterus. and Uterine contraction.
